{"source": "paper PMC3646166", "about": "“Comparison of Aqueous and 1-Octanol Solubility as well as Liquid–Liquid Distribution of Acyclovir Derivatives and Their Complexes with Hydroxypropyl-β-Cyclodextrin” (Journal of Solution Chemistry, 2013)", "key": {"[1]": {"test": "Solubility in water or 1-octanol (saturated solutions, UV-Vis)", "type": "physicochemical", "settings": "for solubility: thermodynamic from solid, water", "experimental": "The sample of substance examined (10 mg or 80 mg for 6-Me-TACV) was placed in a glass ampoule and double-distilled, deionized water (Millipore, Elix 5 purifier), or pure anhydrous 1-octanol (Sigma 99 %) was added. To attain thermodynamic equilibrium, the solute and the solvent were mixed continuously for a minimum of 4 days at a speed of 25 rpm. After the experiment was completed, the sample was centrifuged at 40,000 rpm for 40 min at 25 ± 0.1 °C, the supernatant liquid was collected, diluted, and its concentration determined with a UV–Vis (Varian Carry IE) spectrophotometer. The experiments were repeated at least three times for each solubility."}, "[2]": {"test": "Solubility in buffered cyclodextrin solutions (excess method of Higuchi and Connors)", "type": "physicochemical", "parameters": "Stability constant K s of HP-β-CD complex: unit not given here", "settings": "for Correlation parameter a (Eq. 2, Cs = a + b·CCD) / Correlation parameter b (Eq. 2, Cs = a + b·CCD): buffered HP-β-CD solutions; for solubility / solubility at 7 days: thermodynamic from solid, read-out: Solubility, C 6-Ph-O-Me-TACV", "experimental": "Solubilities of the studied compounds was ensured according to the excess method of Higuchi and Connors. […] An excess amount of compounds 4-9 and 11-12 was added to 1.5 mL of aqueous phosphate buffer (concentration of buffer was equal 0.067 mol·dm^-3) solutions, (pH = 5.5 or 7.0) containing various concentration of HP-β-CD. The cyclodextrin concentration changed in the range of 10^-3 to 2 × 10^-2 mol·dm^-3. The suspensions were shaken in screw-capped plastic vials in a water bath thermostat with the volume of 60 dm^3 (home made apparatus by IChF PAN) at 25 and 37 °C. After 7 days equilibrium was reached and then the suspensions were centrifuged and the absorbance of the studied compounds was measured by UV-Vis spectrophotometry using a Shimadzu UV 2401 PC Spectrometer equipped with a thermostatically controlled cell compartment. During the measurement of absorbance, a buffered-solution of HP-β-CD, of the same concentration as in the studied solution, was always put as the reference. The average values of at least three independent determinations of the absorbance were used for calculation of the concentrations of the particular acyclovir derivatives. […] The main reason for the low solubility of tricyclic acyclovir derivatives with aromatic groups in water is the high hydrophobicity of these substituents. Use of cyclodextrins, which can include aromatic groups into their cavity, may enhance the aqueous solubility of such compounds. For this purpose we used several cyclodextrins and hydroxypropyl-β-cyclodextrin was chosen as being more efficient for complexating the tricyclic acyclovir derivatives. The investigations were performed, for chosen compounds, in various cyclodextrin HP-β-CD, buffered solutions (pH = 5.5 and 7.0) at 25 and 37 °C. […] Values of the correlation parameters a and b for tricyclic acyclovir derivatives complexed by cyclodextrin are presented in Table 3. […] The stability constants of the inclusion complexes between HP-β-CD and acyclovir derivatives have been calculated according to the Higuchi-Connors method using:3 K=b/C0(1-b) where C 0 is the solubility of the sample in solutions without cyclodextrin, obtained by determination of saturated solution concentration of acyclovir derivative solutions. […] These two values can differ, but in our study are very close to each other."}, "[3]": {"test": "Extraction experiments, 1-octanol-water partition coefficient", "type": "physicochemical", "settings": "25 °C, read-out: Partition coefficient 1-octanol–water, P oc/w (converted)", "experimental": "The equipment described above was also used for the determination of the 1-octanol-water partition coefficients. […] The partition coefficient was evaluated as:1 Poc/w=Coc/Cw where C oc and C w are the molar concentrations of the solute in the 1-octanol and water phases, respectively. The correctness of the P oc/w value of each compound was verified by checking the mass balance of the starting amount of the substance and the total amount of the substance partitioned between the two phases."}, "[4]": {"test": "Solubility in buffered cyclodextrin solutions (excess method of Higuchi and Connors)", "type": "physicochemical", "settings": "phosphate buffer saturated with 1-octanol, aqueous buffer, thermodynamic from solid, pH = 7.0, 37 °C, read-out: Solubility, C 6-Ph-O-Me-TACV"}, "HSV-1 and HSV-2 viruses": {"tested_on": "HSV-1 and HSV-2 viruses", "parameters": "method as in PMID 7932543", "settings": "towards HSV-1 and HSV-2 viruses ref 8; cited from earlier work"}}, "note": "Read-outs that look alike come from different tables or passages of the source."}
{"smiles": "COc1ccc(-c2cn3c(=O)c4ncn(COCCO)c4nc3[nH]2)cc1", "note": "[Compound 11]", "values": [{"measurement": "Solubility ratio in 1-octanol and water, C oc/C w", "setting": "[1]; 25 °C", "result": 7.62}, {"measurement": "Solubility ratio in 1-octanol saturated with water and water saturated with 1-octanol, C ocw/C woc", "setting": "[1]; 25 °C", "result": 2.84}, {"measurement": "solubility", "setting": "[1]; 25 °C (Table 1), read-out: Solubility in water, C w", "result": 53, "unit": "µM"}, {"measurement": "solubility", "setting": "[1]; water saturated with 1-octanol, 25 °C, read-out: Solubility in water saturated with 1-octanol, C woc", "result": 135, "unit": "µM"}, {"measurement": "solubility", "setting": "[1]; 35 °C, read-out: Aqueous solubility, C w", "result": 144, "unit": "µM"}, {"measurement": "solubility", "setting": "[1]; 45 °C, read-out: Aqueous solubility, C w", "result": 465, "unit": "µM"}, {"measurement": "Correlation parameter a (Eq. 2, Cs = a + b·CCD)", "setting": "[2]; pH = 5.5, 25 °C", "result": "5.23 × 10^−5"}, {"measurement": "Correlation parameter b (Eq. 2, Cs = a + b·CCD)", "setting": "[2]; pH = 5.5, 25 °C", "result": "1.00 × 10^−2"}, {"measurement": "Correlation parameter a (Eq. 2, Cs = a + b·CCD)", "setting": "[2]; pH = 5.5, 37 °C", "result": "9.95 × 10^−5"}, {"measurement": "Correlation parameter b (Eq. 2, Cs = a + b·CCD)", "setting": "[2]; pH = 5.5, 37 °C", "result": "1.41 × 10^−2"}, {"measurement": "Correlation parameter a (Eq. 2, Cs = a + b·CCD)", "setting": "[2]; pH = 7.0, 25 °C", "result": "5.68 × 10^−5"}, {"measurement": "Correlation parameter b (Eq. 2, Cs = a + b·CCD)", "setting": "[2]; pH = 7.0, 25 °C", "result": "1.06 × 10^−2"}, {"measurement": "Correlation parameter a (Eq. 2, Cs = a + b·CCD)", "setting": "[2]; pH = 7.0, 37 °C", "result": "1.37 × 10^−4"}, {"measurement": "Correlation parameter b (Eq. 2, Cs = a + b·CCD)", "setting": "[2]; pH = 7.0, 37 °C", "result": "1.30 × 10^−2"}, {"measurement": "solubility", "setting": "[2]; organic solvent or mixture, 1-Octanol saturated with buffer, pH = 5.5, 25 °C", "result": 473, "unit": "µM"}, {"measurement": "solubility", "setting": "[2]; organic solvent or mixture, 1-Octanol saturated with buffer, pH = 5.5, 37 °C", "result": 741, "unit": "µM"}, {"measurement": "solubility at 7 days", "setting": "[2]; organic solvent or mixture, 1-Octanol saturated with buffer, pH = 7.0, 25 °C", "result": 485, "unit": "µM"}, {"measurement": "solubility at 7 days", "setting": "[2]; organic solvent or mixture, 1-Octanol saturated with buffer, pH = 7.0, 37 °C", "result": 882, "unit": "µM"}, {"measurement": "Stability constant K s of HP-β-CD complex", "setting": "[2]; pH = 5.5, 25 °C", "result": "213 (±6) dm·mol^−1"}, {"measurement": "Stability constant K s of HP-β-CD complex", "setting": "[2]; pH = 5.5, 37 °C", "result": "144 (±5)"}, {"measurement": "Stability constant K s of HP-β-CD complex", "setting": "[2]; pH = 7, 25 °C", "result": "189 (±6) dm·mol^−1"}, {"measurement": "Stability constant K s of HP-β-CD complex", "setting": "[2]; pH = 7, 37 °C", "result": "96 (±4)"}, {"measurement": "solubility at 7 days", "setting": "[2]; phosphate buffer saturated with 1-octanol, aqueous buffer, Buffer saturated with 1-octanol, pH = 5.5, 25 °C", "result": 74.2, "unit": "µM"}, {"measurement": "solubility at 7 days", "setting": "[2]; phosphate buffer saturated with 1-octanol, aqueous buffer, Buffer saturated with 1-octanol, pH = 5.5, 37 °C", "result": 127, "unit": "µM"}, {"measurement": "solubility at 7 days", "setting": "[2]; phosphate buffer saturated with 1-octanol, aqueous buffer, Buffer saturated with 1-octanol, pH = 7.0, 25 °C", "result": 58.7, "unit": "µM"}, {"measurement": "solubility at 7 days", "setting": "[2]; phosphate buffer saturated with 1-octanol, aqueous with cosolvent or surfactant or cyclodextrin, Buffer saturated with 1-octanol + HP-β-CD (2 × 10^−2 mol·dm^−3), pH = 5.5, 25 °C", "result": 40.3, "unit": "µM"}, {"measurement": "solubility at 7 days", "setting": "[2]; phosphate buffer saturated with 1-octanol, aqueous with cosolvent or surfactant or cyclodextrin, Buffer saturated with 1-octanol + HP-β-CD (2 × 10^−2 mol·dm^−3), pH = 5.5, 37 °C", "result": 77, "unit": "µM"}, {"measurement": "solubility at 7 days", "setting": "[2]; phosphate buffer saturated with 1-octanol, aqueous with cosolvent or surfactant or cyclodextrin, Buffer saturated with 1-octanol + HP-β-CD (2 × 10^−2 mol·dm^−3), pH = 7.0, 25 °C", "result": 40.3, "unit": "µM"}, {"measurement": "solubility at 7 days", "setting": "[2]; phosphate buffer saturated with 1-octanol, aqueous with cosolvent or surfactant or cyclodextrin, Buffer saturated with 1-octanol + HP-β-CD (2 × 10^−2 mol·dm^−3), pH = 7.0, 37 °C", "result": 80.6, "unit": "µM"}, {"measurement": "solubility at 7 days", "setting": "[2]; phosphate buffer with HP-β-CD, aqueous with cosolvent or surfactant or cyclodextrin, Buffer + HP-β-CD (2 × 10^−2 mol·dm^−3), pH = 5.5, 25 °C", "result": 244, "unit": "µM"}, {"measurement": "solubility at 7 days", "setting": "[2]; phosphate buffer with HP-β-CD, aqueous with cosolvent or surfactant or cyclodextrin, Buffer + HP-β-CD (2 × 10^−2 mol·dm^−3), pH = 5.5, 37 °C", "result": 374, "unit": "µM"}, {"measurement": "solubility at 7 days", "setting": "[2]; phosphate buffer with HP-β-CD, aqueous with cosolvent or surfactant or cyclodextrin, Buffer + HP-β-CD (2 × 10^−2 mol·dm^−3), pH = 7.0, 25 °C", "result": 265, "unit": "µM"}, {"measurement": "solubility at 7 days", "setting": "[2]; phosphate buffer with HP-β-CD, aqueous with cosolvent or surfactant or cyclodextrin, Buffer + HP-β-CD (2 × 10^−2 mol·dm^−3), pH = 7.0, 37 °C", "result": 391, "unit": "µM"}, {"measurement": "solubility at 7 days", "setting": "[2]; phosphate buffer, aqueous buffer, Buffer, pH = 5.5, 25 °C", "result": 48.2, "unit": "µM"}, {"measurement": "solubility at 7 days", "setting": "[2]; phosphate buffer, aqueous buffer, Buffer, pH = 5.5, 37 °C", "result": 99.4, "unit": "µM"}, {"measurement": "solubility at 7 days", "setting": "[2]; phosphate buffer, aqueous buffer, Buffer, pH = 7.0, 25 °C", "result": 55, "unit": "µM"}, {"measurement": "solubility at 7 days", "setting": "[2]; phosphate buffer, aqueous buffer, Buffer, pH = 7.0, 37 °C", "result": 136, "unit": "µM"}, {"measurement": "logP at 2 days", "setting": "[3]", "result": 0.386}, {"measurement": "solubility at 7 days", "setting": "[4]", "result": 139, "unit": "µM"}, {"measurement": "Antiherpetic activity relative to parent acyclovir (concentrations required to reduce virus-induced cytopathicity by 50 %)", "setting": "HSV-1 and HSV-2 viruses", "result": "2–7 times higher"}]}
